Five molecules from patent publication US11542235B2, “Herbicidal 3-azaspiro[5.5] undecane-8, 10-dione compounds” (SYNGENTA PARTICIPATIONS AG, priority 2018, dated 2023) can be followed below.

SMILES strings stand for the structures.

Holding throughout (assay type): in vivo
One assay deals with Setaria faberi (SETFA). Nature of the assay: Glasshouse herbicidal test, pre- and post-emergence, Setaria faberi. Conditions: 250 g/h, evaluated after 13 days, five point scale; for percentage damage caused to the plant, SETFA POST: post-emergence; for percentage damage caused to the plant, SETFA PRE: pre-emergence. How it is done: (§1) Seeds of a variety of test species are sown in standard soil in pots (Lolium perenne (LOLPE), Setaria faberi (SETFA), Alopecurus myosuroides (ALOMY), Echinochloa crus-galli (ECHCG), Avena fatua (AVEFA)). After cultivation for one day (pre-emergence) or after 8 days cultivation (post-emergence) under controlled conditions in a glasshouse (at 24/16° C., day/night; 14 hours light; 65% humidity), the plants are sprayed with an aqueous spray solution derived from the formulation of the technical active ingredient in acetone/water (50:50) solution containing 0.5% Tween 20 (polyoxyethelyene sorbitan monolaurate, CAS RN 9005-64-5). Compounds are applied at […]. The test plants are then grown in a glasshouse under controlled conditions in a glasshouse (at 24/16° C., day/night; 14 hours light; 65% humidity) and watered twice daily. After 13 days for pre and post-emergence, the test is evaluated for the percentage damage caused to the plant. The biological activities are shown in the following table on a five point scale (5=80-100%; 4=60-79%; 3=40-59%; 2=20-39%; 1=0-19%).

In assay [1] the test system is Alopecurus myosuroides (ALOMY). The assay can be described thus: Glasshouse herbicidal test, pre- and post-emergence, Alopecurus myosuroides. Particulars: 250 g/h, evaluated after 13 days, five point scale; for percentage damage caused to the plant, ALOMY POST: post-emergence; for percentage damage caused to the plant, ALOMY PRE: pre-emergence. As to the method: as §1

Another assay has as its system Avena fatua (AVEFA). Nature of the assay: Glasshouse herbicidal test, pre- and post-emergence, Avena fatua. Particulars: 250 g/h, evaluated after 13 days, five point scale; for percentage damage caused to the plant, AVEFA POST: post-emergence; for percentage damage caused to the plant, AVEFA PRE: pre-emergence. As to the method: as §1
In a further assay the test system is Lolium perenne (LOLPE). The assay can be described thus: Glasshouse herbicidal test, pre- and post-emergence, Lolium perenne. Particulars: 250 g/h, evaluated after 13 days, five point scale; for percentage damage caused to the plant, LOLPE POST: post-emergence; for percentage damage caused to the plant, LOLPE PRE: pre-emergence. How it is done: as §1
Assay [2] concerns Echinochloa crus-galli (ECHCG). The assay can be described thus: Glasshouse herbicidal test, pre- and post-emergence, Echinochloa crus-galli. Particulars: 250 g/h, evaluated after 13 days, five point scale; for percentage damage caused to the plant, ECHCG POST: post-emergence; for percentage damage caused to the plant, ECHCG PRE: pre-emergence. How it is done:
as §1

`CC#Cc1cc(C)c(C2=C(OC(=O)OC(C)C)CC3(CCN(C(C)=O)CC3)CC2=O)c(C)c1` [Compound P10]: in the assay on Setaria faberi (SETFA), the “percentage damage caused to the plant, SETFA POST” value is reported as 5 (5=80-100%) and the “percentage damage caused to the plant, SETFA PRE” value is reported as 5 (5=80-100%). Besides, in assay [1], the “percentage damage caused to the plant, ALOMY POST” value is given as 5 (5=80-100%) and the “percentage damage caused to the plant, ALOMY PRE” value was 5 (5=80-100%). In the assay on Avena fatua (AVEFA), the “percentage damage caused to the plant, AVEFA POST” value is given as 5 (5=80-100%) and the “percentage damage caused to the plant, AVEFA PRE” value is reported as 5 (5=80-100%). In addition, in the assay with Lolium perenne (LOLPE), the “percentage damage caused to the plant, LOLPE POST” value is 5 (5=80-100%) and the “percentage damage caused to the plant, LOLPE PRE” value is recorded as 5 (5=80-100%). Also, in assay [2], the “percentage damage caused to the plant, ECHCG POST” value was 5 (5=80-100%) and the “percentage damage caused to the plant, ECHCG PRE” value was 5 (5=80-100%).
As to `CC#Cc1cc(C)c(C2=C(OS(=O)(=O)CC)CC3(CCN(C(C)=O)CC3)CC2=O)c(C)c1` [Compound P13], in the assay on Setaria faberi (SETFA), the “percentage damage caused to the plant, SETFA POST” value is 5 (5=80-100%) and the “percentage damage caused to the plant, SETFA PRE” value is 5 (5=80-100%). Further, in assay [1], the “percentage damage caused to the plant, ALOMY POST” value is 5 (5=80-100%) and the “percentage damage caused to the plant, ALOMY PRE” value is recorded as 4 (4=60-79%). In addition, in the assay on Avena fatua (AVEFA), the “percentage damage caused to the plant, AVEFA POST” value is on record as 5 (5=80-100%) and the “percentage damage caused to the plant, AVEFA PRE” value is recorded as 5 (5=80-100%). For the same molecule, in the assay with Lolium perenne (LOLPE), the “percentage damage caused to the plant, LOLPE POST” value is 5 (5=80-100%) and the “percentage damage caused to the plant, LOLPE PRE” value is 5 (5=80-100%). In assay [2], the “percentage damage caused to the plant, ECHCG POST” value was 5 (5=80-100%) and the “percentage damage caused to the plant, ECHCG PRE” value is reported as 4 (4=60-79%).
With `CC#Cc1cc(C)c(C2C(=O)CC3(CCN(C(=O)C(C)C(F)(F)F)CC3)CC2=O)c(C)c1` (centres unmarked) [Compound A24], in the assay with Setaria faberi (SETFA), the “percentage damage caused to the plant, SETFA POST” value was 5 (5=80-100%) and the “percentage damage caused to the plant, SETFA PRE” value is 5 (5=80-100%). Also, in assay [1], the “percentage damage caused to the plant, ALOMY POST” value is 5 (5=80-100%) and the “percentage damage caused to the plant, ALOMY PRE” value is given as 5 (5=80-100%). In the assay with Avena fatua (AVEFA), the “percentage damage caused to the plant, AVEFA POST” value was 5 (5=80-100%) and the “percentage damage caused to the plant, AVEFA PRE” value is recorded as 5 (5=80-100%). For the same molecule, in the assay with Lolium perenne (LOLPE), the “percentage damage caused to the plant, LOLPE POST” value is on record as 5 (5=80-100%) and the “percentage damage caused to the plant, LOLPE PRE” value is 5 (5=80-100%). In addition, in assay [2], the “percentage damage caused to the plant, ECHCG POST” value is 5 (5=80-100%) and the “percentage damage caused to the plant, ECHCG PRE” value is 5 (5=80-100%).
As for `CC#Cc1cc(C)c(C2=C(OC(C)=O)CC3(CCN(OC)CC3)CC2=O)c(C)c1` [Compound P2], in the assay on Setaria faberi (SETFA), the “percentage damage caused to the plant, SETFA POST” value is 5 (5=80-100%) and the “percentage damage caused to the plant, SETFA PRE” value is on record as 5 (5=80-100%). In addition, in assay [1], the “percentage damage caused to the plant, ALOMY POST” value is 5 (5=80-100%) and the “percentage damage caused to the plant, ALOMY PRE” value is given as 5 (5=80-100%). Moreover, in the assay with Avena fatua (AVEFA), the “percentage damage caused to the plant, AVEFA POST” value is recorded as 5 (5=80-100%) and the “percentage damage caused to the plant, AVEFA PRE” value is 5 (5=80-100%). Moreover, in the assay with Lolium perenne (LOLPE), the “percentage damage caused to the plant, LOLPE POST” value is recorded as 5 (5=80-100%) and the “percentage damage caused to the plant, LOLPE PRE” value was 5 (5=80-100%). In addition, in assay [2], the “percentage damage caused to the plant, ECHCG POST” value is reported as 5 (5=80-100%) and the “percentage damage caused to the plant, ECHCG PRE” value is reported as 5 (5=80-100%).
For the molecule `CC#Cc1cc(C)c(C2C(=O)CC3(CCN(C(=O)C(C)C)CC3)CC2=O)c(C)c1` [Compound A11], in the assay with Setaria faberi (SETFA), the “percentage damage caused to the plant, SETFA POST” value was 5 (5=80-100%) and the “percentage damage caused to the plant, SETFA PRE” value was 5 (5=80-100%). For the same molecule, in assay [1], the “percentage damage caused to the plant, ALOMY POST” value is 5 (5=80-100%) and the “percentage damage caused to the plant, ALOMY PRE” value was 5 (5=80-100%). Also, in the assay with Avena fatua (AVEFA), the “percentage damage caused to the plant, AVEFA POST” value is listed as 5 (5=80-100%) and the “percentage damage caused to the plant, AVEFA PRE” value is recorded as 5 (5=80-100%). In the assay with Lolium perenne (LOLPE), the “percentage damage caused to the plant, LOLPE POST” value was 5 (5=80-100%) and the “percentage damage caused to the plant, LOLPE PRE” value was 5 (5=80-100%). Further, in assay [2], the “percentage damage caused to the plant, ECHCG POST” value is 5 (5=80-100%) and the “percentage damage caused to the plant, ECHCG PRE” value is given as 5 (5=80-100%).
